In PubChem BioAssay AID260 (DTP/NCI, 2004):
“And” between values parts separate entries of the source, which are not always exact repeats. Equal values may be shown once. Toxic doses and inconclusive results are not listed. The calls were made as follows: active = survival T/C of 150% or more; inactive = T/C below 125% in these data.

Test system: CD2F1 mice, intracerebral L1210 leukemia, survival T/C
Test: NCI In Vivo Anticancer Drug Screen. Data for tumor model L1210 Leukemia (intracerebral) in CD2F1 (CDF1) mice
Conditions: higher = longer survival
Experimental: The antitumor activity of compounds was measured in mice bearing transplantable tumors. Survival or tumor size were measured and the results are expressed as the measurement made in the treated group (T) divided by the measurement made in the vehicle treated control group (C). The tumor model used in this assay is L1210 Leukemia (intracerebral) in CD2F1 (CDF1) mice

[1] = endpoint: median survival time, dose: 8.0 mg/kg/injection, schedule: Q01DX009 (ip), vehicle: saline with Tween-80
[2] = endpoint: median survival time, dose: 16.0 mg/kg/injection, schedule: Q01DX009 (ip), vehicle: saline with Tween-80
[3] = endpoint: median survival time, dose: 32.0 mg/kg/injection, schedule: Q01DX009 (ip), vehicle: saline with Tween-80
[4] = endpoint: median survival time, dose: 64.0 mg/kg/injection, schedule: Q01DX009 (ip), vehicle: saline with Tween-80
[5] = endpoint: median survival time, dose: 128.0 mg/kg/injection, schedule: Q01DX009 (ip), vehicle: saline with Tween-80
[6] = endpoint: median survival time, dose: 256.0 mg/kg/injection, schedule: Q01DX009 (ip), vehicle: saline with Tween-80
[7] = endpoint: median survival time, dose: 512.0 mg/kg/injection, schedule: Q01DX009 (ip), vehicle: saline with Tween-80

Measured: T/C

O=NN(CCCl)C(=O)NC1C(O)C(O)C(O)C(O)C1O (stereo not given)
inactive: endpoint: mean survival time, dose: 9.0 mg/kg/injection, schedule: Q01DX001 (ip), vehicle: saline 110 % of control | endpoint: mean survival time, dose: 13.0 mg/kg/injection, schedule: Q01DX001 (ip), vehicle: saline 117 % of control | endpoint: mean survival time, dose: 44.0 mg/kg/injection, schedule: Q01DX001 (ip), vehicle: saline 115 % of control | endpoint: mean survival time, dose: 67.0 mg/kg/injection, schedule: Q01DX001 (ip), vehicle: saline 95 % of control

CCCCCC(=O)O[C@]1(C(C)=O)CC[C@H]2[C@@H]3CCC4=CC(=O)CC[C@]4(C)[C@H]3CC[C@@]21C
inactive: [1] 117 % of control | [2] 104 % of control | [3] 114 % of control | [4] 94 % of control | [5] 93 % of control | [6] 94 % of control | [7] 107 % of control

O=C(O)CC(NC(=O)CP(=O)(O)O)C(=O)O (stereo not given)
inactive: endpoint: mean survival time, dose: 200.0 mg/kg/injection, schedule: Q01DX009 (ip), vehicle: saline 100 % of control | endpoint: mean survival time, dose: 225.0 mg/kg/injection, schedule: Q01DX009 (ip), vehicle: saline 108 % of control | endpoint: mean survival time, dose: 250.0 mg/kg/injection, schedule: Q01DX009 (ip), vehicle: saline 101 % of control

CN(CO)c1nc(N(C)CO)nc(N(C)CO)n1
inactive: endpoint: median survival time, dose: 3.12 mg/kg/injection, schedule: Q01DX009 (ip), vehicle: saline with Tween-80 101 % of control | endpoint: median survival time, dose: 6.25 mg/kg/injection, schedule: Q01DX009 (ip), vehicle: saline with Tween-80 96 % of control | endpoint: median survival time, dose: 12.5 mg/kg/injection, schedule: Q01DX009 (ip), vehicle: saline with Tween-80 100 % of control | endpoint: median survival time, dose: 25.0 mg/kg/injection, schedule: Q01DX009 (ip), vehicle: saline with Tween-80 95 % of control | endpoint: median survival time, dose: 50.0 mg/kg/injection, schedule: Q01DX009 (ip), vehicle: Klucel (hydroxypropylcellulose) (HPC) 104 % of control and 109 % of control | endpoint: median survival time, dose: 50.0 mg/kg/injection, schedule: Q01DX009 (ip), vehicle: saline with Tween-80 104 % of control | endpoint: median survival time, dose: 100.0 mg/kg/injection, schedule: Q01DX009 (ip), vehicle: Klucel (hydroxypropylcellulose) (HPC) 119 % of control and 116 % of control

COc1cc2c(c3c1c(=O)c1ccccc1n3C)C=CC(C)(C)O2
inactive: endpoint: median survival time, dose: 128.0 mg/kg/injection, schedule: Q01DX005 (ip), vehicle: Klucel (hydroxypropylcellulose) (HPC) 108 % of control

CCC(=O)O[C@H]1CC[C@H]2[C@@H]3CCC4=CC(=O)CC[C@]4(C)[C@H]3CC[C@]12C
inactive: [1] 121 % of control | endpoint: median survival time, dose: 8.0 mg/kg/injection, schedule: Q01DX009 (ip), vehicle: saline 109 % of control | [2] 110 % of control | endpoint: median survival time, dose: 16.0 mg/kg/injection, schedule: Q01DX009 (ip), vehicle: saline 102 % of control | [3] 118 % of control | endpoint: median survival time, dose: 32.0 mg/kg/injection, schedule: Q01DX009 (ip), vehicle: saline 104 % of control | [4] 118 % of control | [5] 110 % of control | [6] 101 % of control | endpoint: median survival time, dose: 256.0 mg/kg/injection, schedule: Q01DX009 (ip), vehicle: saline 120 % of control | [7] 105 % of control | endpoint: median survival time, dose: 512.0 mg/kg/injection, schedule: Q01DX009 (ip), vehicle: saline 116 % of control
active: endpoint: median survival time, dose: 128.0 mg/kg/injection, schedule: Q01DX009 (ip), vehicle: saline 224 % of control

CCCN(C)/N=N/c1nc[nH]c1C(N)=O
inactive: endpoint: median survival time, dose: 4.0 mg/kg/injection, schedule: Q01DX005 (ip), vehicle: suspension in saline 105 % of control | endpoint: median survival time, dose: 8.0 mg/kg/injection, schedule: Q01DX005 (ip), vehicle: suspension in saline 109 % of control | endpoint: median survival time, dose: 16.0 mg/kg/injection, schedule: Q01DX005 (ip), vehicle: suspension in saline 112 % of control | endpoint: median survival time, dose: 32.0 mg/kg/injection, schedule: Q01DX005 (ip), vehicle: suspension in saline 118 % of control | endpoint: median survival time, dose: 64.0 mg/kg/injection, schedule: Q01DX005 (ip), vehicle: suspension in saline 124 % of control

CCCCCCCCN(C)/N=N/c1nc[nH]c1C(N)=O
inactive: endpoint: median survival time, dose: 16.0 mg/kg/injection, schedule: Q01DX005 (ip), vehicle: saline with Tween-80 119 % of control | endpoint: median survival time, dose: 32.0 mg/kg/injection, schedule: Q01DX005 (ip), vehicle: saline with Tween-80 121 % of control | endpoint: median survival time, dose: 64.0 mg/kg/injection, schedule: Q01DX005 (ip), vehicle: saline with Tween-80 124 % of control | endpoint: median survival time, dose: 128.0 mg/kg/injection, schedule: Q01DX005 (ip), vehicle: saline with Tween-80 118 % of control | endpoint: median survival time, dose: 256.0 mg/kg/injection, schedule: Q01DX005 (ip), vehicle: saline with Tween-80 89 % of control
